Measurements as given in patent US20180153870A1, “BIPERIDEN FOR TREATING CANCER” (Universitätsklinikum Hamburg-Eppendorf, priority 2015, published 2018).

Legend:
[1] = test system: lung carcinoma cell lines A549 und H1299; assay: MTT proliferation assay, lung carcinoma cell lines; format: cell-based, human; conditions: concentrations as in Example 1
Experimental: The proliferation rates of the cell lines were determined after stimulation with (i) biperiden, (ii) mepazine, and (iii) stimulation with both active ingredients. For this purpose, cells were seeded in plates with 96 wells at 5000 cells per well and incubated overnight at 37° C. and 5% CO2. Next morning, the blanket values were measured at 490 nm in an ELISA reader (FLUOstar Omega, BMG LABTECH) after the addition of 100 μL medium and 20 μL MTT substrate (CellTiter 96 AQueous One Solution Cell Proliferation Assay, Promega). Biperiden was added in increasing concentrations (3.71 μg/ml, 11.1 μg/ml und 29.6 μg/ml) in the form of solutions of biperiden hydrochloride (B5311 SIGMA-Aldrich, USA) and DMSO. Mepazine was added in increasing concentrations (15 μM and 25 μM) in the form of solutions of mepazine hydrochloride (MALT1 Inhibitor II, Calbiochem Merck, Millipore Billerica, USA). Combinations of both mepazine and biperiden were added in the following concentrations: 15 μM mepazine+3.71 μg/ml biperiden; 25 μM mepazine+3.71 μg/ml biperiden. The ex-tinction was measured every 24 hours during a period of 72 hours. […]

Panc-1 = assay: cleaved caspase 3 sandwich ELISA (apoptosis), Panc-1; format: cell-based, human; conditions: 29.6 μg/ml biperiden, after 24 hours
Experimental: (§1) To determine the effect of biperiden, mepazine and combinations of the two active ingredients on apoptosis in cell lines, a “cleaved caspase 3” sandwich ELISA was used. The pancreatic cancer cell lines L3.6pl res, L3.6pl wt, Panc-1, Panc-2 and the reference cell line HPDE were treated with 29.6 μg/ml biperiden or 25 μM mepazine or 15 μM mepazine+3.7 μg/ml biperiden or only with vehicle (DMSO). The cleaved caspase 3 was measured 24, 48 and 72 hours after incubation. The apoptosis within the cells was measured using a PathScan “cleaved caspase 3” sandwich ELISA (Cell Signaling, #7190C) according to the manufacturers instructions. Each experiment was carried out at least 3 times in duplicate.

HPDE = assay: cleaved caspase 3 sandwich ELISA (apoptosis), HPDE; format: cell-based, human; conditions: 29.6 μg/ml biperiden
Experimental: as §1

L3.6pl wt = assay: cleaved caspase 3 sandwich ELISA (apoptosis), L3.6pl wt; format: cell-based, human; conditions: 29.6 μg/ml biperiden
Experimental: as §1

human Panc-1 tumor cells = assay: Mouse xenograft model with subcutaneous Panc-1 tumor cells; format: in vivo, pfp−/−/rag2−/− double knockout mice; conditions: for size of the subcutaneous tumor: daily i.p. treatment, 16 mg/kg mepazine; for size of the subcutaneous tumor / tumor sizes compared to the control groups: 10 mg/kg biperiden; for tumor sizes compared to the control groups: daily i.p., 16 mg/kg mepazine or both
Text: For the mouse xenograft model pfp−/−/rag2−/− double knockout mice were used. […] Owing to the inactivated rag2 gene, the mouse lacks mature T or B lymphocytes. The mouse model was developed by the Taconic Institute (Quality Laboratory Animals and Services for Research, DK8680 Ry, Taconic Europe, Denmark) by crossing the PFPN12 mouse model with the RAGN12 mouse model. This model was back crossed over 12 generations (N12) with C57BL/6NTac, and the colony was maintained by homozygous pairing. The mouse model was used in the course of the present invention with PDAC cells of the cell line Panc-1, which were administered subcutaneously. 12 days after subcutaneous injection of 10^6 human Panc-1 tumor cells, the mice were treated daily either with 16 mg/kg mepazine i.p. (n=10), 10 mg/kg biperiden (n=10) i.p. or with a combination of both active ingredients, that is with 16 mg/kg mepazine and 10 mg/kg biperiden (n=10) i.p. The control group (n=10) was not treated. The daily treatment was performed under identical, standardized conditions. The same 3-days-cycle was used over the complete period of the study: day one comprised the injection of the medication and the determination of the bodyweight by weighing. Day 2 comprised the injection of the medication and the determination of the subcutaneous tumor growth with a caliper. Day 3 comprised the injection of the medication and neuroscoring. […] After euthanizing, the subcutaneous tumors were removed from the mice. Prior to the surgery, the body of the mouse was disinfected with ethanol. The skin above the tumor was carefully incised, and the tumor was surgically removed from the adjacent tissue. After removal, the tumor was weighed and measured. For evaluation only mice were used which had developed a tumor. […] The volumes of the subcutaneous tumors were measured with a caliper after removal and calculated using the formula length× width^2 as described in [8]. […] The average tumor size in the control group was 729.33 mm^3±186.25 mm^3 compared to 130.43 mm^3±63.96 mm^3 in the group that was treated with mepazine (p=0.002; one-sided Fisher's exact test).

L3.6pl res = assay: cleaved caspase 3 sandwich ELISA (apoptosis), L3.6pl res; format: cell-based, human; conditions: 29.6 μg/ml biperiden
Experimental: as §1

With `OC(CCN1CCCCC1)(c1ccccc1)C1CC2C=CC1C2` (stereo not shown) [biperiden] the “proliferation of lung carcinoma cell lines” value [1] was “inhibited proliferation”, the “cleaved caspase 3” value (Panc-1) was 325.1±48.3 RLU and the “increase of apoptosis rate compared to vehicle” value (“increase of apoptosis rate” for short) (Panc-1; p=0.049) was 125.3%. For the same compound, the “cleaved caspase 3” value (HPDE; after 48 hours) was 265.3±27.8 RLU, the “increase of apoptosis rate” value (HPDE; after 48 hours, p=0.037) was 132% and the “cleaved caspase 3” value (HPDE; after 72 hours) was 368.4±33.5 RLU. For the same compound, the “increase of apoptosis rate” value (HPDE; after 72 hours, p=0.002) was 283.9%, the “cleaved caspase 3” value (L3.6pl wt; after 24 hours) was 443.4±18.1 RLU and the “increase of apoptosis rate” value (L3.6pl wt; after 24 hours, p<0.001) was 210.4%. For the same compound, the “cleaved caspase 3” value (L3.6pl wt; after 48 hours) was 386.2±15.9 RLU, the “increase of apoptosis rate” value (L3.6pl wt; after 48 hours, p=0.028) was 83.5% and the “size of the subcutaneous tumor” value (human Panc-1 tumor cells; Panc-1 xenograft) was “significantly reduced”. For the same compound, the “tumor sizes compared to the control groups” value (human Panc-1 tumor cells; Panc-1 xenograft) was “visibly smaller”, the compatibility of administration (human Panc-1 tumor cells; mice, 10 mg/kg biperiden i.p. daily) was “good compatibility” and the “motor activity compared to mice that received mepazine or no medication” value (human Panc-1 tumor cells; mice, 10 mg/kg biperiden i.p. or 16 mg/kg mepazine and 10 mg/kg biperiden i.p., daily) was “motorically more active”. The “cleaved caspase 3” value (L3.6pl res; after 24 hours) was 770.0±72.5 RLU, the “increase of apoptosis rate” value (L3.6pl res; after 24 hours, p=0.008) was 274% and the “cleaved caspase 3” value (L3.6pl res; after 48 hours) was 848.1±45.7 RLU. The “increase of apoptosis rate” value (L3.6pl res; after 48 hours, p=0.003) was 273.8%, the “cleaved caspase 3” value (L3.6pl res; after 72 hours) was 633.3±55.7 RLU and the “increase of apoptosis rate” value (L3.6pl res; after 72 hours, p=0.021) was 204.0%.

`CN1CCCC(CN2c3ccccc3Sc3ccccc32)C1` (stereo not shown) [mepazine] was tested, and the “proliferation of lung carcinoma cell lines” value [1] was “inhibited proliferation”, the average tumor size (human Panc-1 tumor cells; Panc-1 xenograft, 16 mg/kg mepazine i.p. daily, ±63.96 mm^3, control 729.33 mm^3±186.25 mm^3, p=0.002) was 130.43 mm^3 and the “size of the subcutaneous tumor” value (human Panc-1 tumor cells; Panc-1 xenograft) was “significantly reduced”. For the same compound, the “tumor sizes compared to the control groups” value (human Panc-1 tumor cells; Panc-1 xenograft) was “visibly smaller”.
